Test results reported in ChEMBL document CHEMBL3046581, “Synthesis and cytotoxic activity of diaryl urea derivatives with a 4-methylpiperazinylcarbonyl moiety” (Med Chem Res, 2013).

Experiments:
PC-3 [1] = assay: Cytotoxicity against Homo sapiens (human) PC3 cells assessed as growth inhibition at 100 uM after 48 hr by MTT assay; format: functional; conditions: PC-3, 48 h, read-out: GI
A549 [2] = assay: Cytotoxicity against Homo sapiens (human) A549 cells assessed as growth inhibition at 100 uM after 48 hr by MTT assay; format: functional; conditions: A549, 48 h, read-out: GI
PC-3 [3] = assay: Cytotoxicity against Homo sapiens (human) PC3 cells assessed as growth inhibition after 48 hr by MTT assay; format: functional
A549 [4] = assay: Cytotoxicity against Homo sapiens (human) A549 cells assessed as growth inhibition after 48 hr by MTT assay; format: functional, cell-based; conditions: for IC50: Homo sapiens, A549, 48 h

Row | SMILES | inhibition of growth at 100 µM (PC-3 [1]) [%] | inhibition of growth at 100 µM (A549 [2]) [%] | growth inhibition (GI) (PC-3 [3]) [%] | growth inhibition (GI) (A549 [4]) | IC50 (A549 [4]) [µM] | growth inhibition (GI) (A549 [4]; record 2) [%]
1 | CN1CCN(C(=O)c2ccc(NC(=O)Nc3cccc(C(=O)N4CCCCC4)c3)cc2)CC1 | 31.1 | 19.7 | – | – | – | –
2 | Cc1cc(NC(=O)Nc2ccc(C(=O)N3CCN(C)CC3)cc2)ccc1Cl | 35.1 | 27.5 | – | – | – | –
3 | CNC(=O)c1cc(Oc2ccc(NC(=O)Nc3ccc(Cl)c(C(F)(F)F)c3)cc2)ccn1 [SORAFENIB] | – | – | 91.4 | Dose-dependent effect | 6.08 | 94.8
4 | CN1CCN(C(=O)c2ccc(NC(=O)Nc3ccc(OCc4cccc(F)c4)c(Cl)c3)cc2)CC1 | 82.7 | 74 | – | – | 10.8 | –
5 | CC(=O)Nc1nc2ccc(NC(=O)Nc3ccc(C(=O)N4CCN(C)CC4)cc3)cc2s1 | – | 93.5 | – | Dose-dependent effect | 0.57 | –
6 | CN1CCN(C(=O)c2ccc(NC(=O)Nc3ccc(Cl)c(C(F)(F)F)c3)cc2)CC1 | 25.5 | 22.6 | – | – | – | –
7 | CN1CCN(C(=O)c2ccc(NC(=O)Nc3cccc(C(F)(F)F)c3)cc2)CC1 | 37.1 | 21.2 | – | – | – | –
8 | CN1CCN(C(=O)c2ccc(NC(=O)Nc3ccc(Cl)c(Cl)c3)cc2)CC1 | 28 | 36.5 | – | – | – | –
9 | CN1CCN(C(=O)c2ccc(NC(=O)Nc3ccc(F)c(Cl)c3)cc2)CC1 | 29.9 | 28.4 | – | – | – | –
10 | COc1cc(NC(=O)Nc2ccc(C(=O)N3CCN(C)CC3)cc2)cc(OC)c1 | 40 | 28.6 | – | – | – | –
11 | C#Cc1cccc(NC(=O)Nc2ccc(C(=O)N3CCN(C)CC3)cc2)c1 | 49.3 | 45.4 | – | – | – | –
12 | CN1CCN(C(=O)c2ccc(NC(=O)Nc3ccc(F)c(F)c3)cc2)CC1 | 27.6 | 43.1 | – | – | – | –
